Test results as given in patent US10669272B2, “Substituted naphthyridinone compounds useful as T cell activators” (BRISTOL-MYERS SQUIBB COMPANY, priority 2018, dated 2020).
Read-outs that look alike come from different tables or passages of the source.

How the values were obtained:
[1] = target: T1, human DGKα (Homo sapiens, UniProt P23743); assay: DGKα LIPGLO assay (extruded liposome substrate), in vitro DGK inhibition; type: biochemical; conditions: read-out: DGKa LIPGLO IC50
T1 construct: TVMV protease cleavage site (C); Hexa-His (C); made in house; host or cells: Sf9 insect cells (baculovirus, Bac-to-Bac)
T1 sequence (P23743 with tags, fused parts or gaps): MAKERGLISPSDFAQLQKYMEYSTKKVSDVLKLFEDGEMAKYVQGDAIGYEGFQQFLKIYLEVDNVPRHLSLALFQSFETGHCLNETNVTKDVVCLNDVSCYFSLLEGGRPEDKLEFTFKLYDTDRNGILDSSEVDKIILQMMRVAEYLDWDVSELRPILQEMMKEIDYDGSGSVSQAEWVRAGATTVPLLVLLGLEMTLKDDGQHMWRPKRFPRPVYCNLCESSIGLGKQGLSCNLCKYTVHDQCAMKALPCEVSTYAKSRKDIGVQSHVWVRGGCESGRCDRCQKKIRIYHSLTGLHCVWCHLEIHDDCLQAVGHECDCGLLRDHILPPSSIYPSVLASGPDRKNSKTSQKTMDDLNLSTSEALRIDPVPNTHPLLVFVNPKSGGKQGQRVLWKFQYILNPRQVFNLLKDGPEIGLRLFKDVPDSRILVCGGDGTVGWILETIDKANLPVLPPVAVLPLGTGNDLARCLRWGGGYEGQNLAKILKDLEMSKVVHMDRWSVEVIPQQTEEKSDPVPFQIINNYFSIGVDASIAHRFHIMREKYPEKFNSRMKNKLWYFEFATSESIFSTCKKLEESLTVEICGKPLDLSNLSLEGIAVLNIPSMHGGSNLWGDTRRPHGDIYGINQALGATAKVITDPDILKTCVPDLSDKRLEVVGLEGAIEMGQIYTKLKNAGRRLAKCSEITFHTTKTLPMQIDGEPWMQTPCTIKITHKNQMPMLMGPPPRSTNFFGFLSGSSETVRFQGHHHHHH

[2] = target: T2, human DGKζ (Homo sapiens, UniProt Q13574); assay: DGKζ LIPGLO assay (extruded liposome substrate), in vitro DGK inhibition; type: biochemical; conditions: read-out: DGKz LIPGLO IC50
T2 construct: TVMV protease cleavage site (C); Hexa-His (C); made in house; host or cells: Sf9 insect cells (baculovirus, Bac-to-Bac)
T2 sequence (Q13574 with tags, fused parts or gaps isoform Q13574-4): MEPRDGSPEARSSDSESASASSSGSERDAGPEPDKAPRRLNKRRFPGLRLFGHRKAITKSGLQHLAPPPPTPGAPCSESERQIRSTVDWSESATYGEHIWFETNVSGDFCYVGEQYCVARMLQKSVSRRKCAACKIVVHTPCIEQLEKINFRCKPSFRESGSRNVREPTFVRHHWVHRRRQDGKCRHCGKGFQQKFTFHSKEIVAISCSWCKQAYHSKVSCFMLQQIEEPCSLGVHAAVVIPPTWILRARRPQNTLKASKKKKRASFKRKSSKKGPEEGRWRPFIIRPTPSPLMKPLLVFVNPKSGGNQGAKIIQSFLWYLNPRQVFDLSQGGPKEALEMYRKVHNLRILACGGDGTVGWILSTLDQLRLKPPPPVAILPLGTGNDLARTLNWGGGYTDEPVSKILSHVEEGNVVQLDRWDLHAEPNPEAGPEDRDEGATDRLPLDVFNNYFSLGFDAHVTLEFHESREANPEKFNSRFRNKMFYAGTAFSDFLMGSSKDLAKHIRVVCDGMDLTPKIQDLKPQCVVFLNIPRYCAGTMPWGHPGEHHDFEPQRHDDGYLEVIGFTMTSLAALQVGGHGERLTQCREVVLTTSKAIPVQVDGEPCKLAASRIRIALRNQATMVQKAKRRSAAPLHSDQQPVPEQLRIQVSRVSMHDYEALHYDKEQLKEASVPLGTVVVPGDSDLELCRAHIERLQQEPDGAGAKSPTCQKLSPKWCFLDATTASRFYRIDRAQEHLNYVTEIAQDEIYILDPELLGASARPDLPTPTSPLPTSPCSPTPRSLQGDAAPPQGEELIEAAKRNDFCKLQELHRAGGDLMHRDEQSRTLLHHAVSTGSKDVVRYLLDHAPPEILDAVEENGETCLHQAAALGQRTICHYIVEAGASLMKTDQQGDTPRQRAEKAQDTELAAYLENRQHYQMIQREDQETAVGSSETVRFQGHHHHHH

Structure (SMILES) | IC50 ([1]; liposome (LIPGLO) assay) | IC50 ([2]; liposome (LIPGLO) assay) | IC50 ([1]; DGKα liposome (LIPGLO) assay) | IC50 ([2]; DGKζ liposome (LIPGLO) assay)
CC(c1ccc(C#N)c(OCCN(C)C)c1)N1C[C@H](C)N(c2cc(=O)n(C)c3ccc(C#N)nc23)C[C@H]1C (single isomer, unassigned) [Example 1322] | 130 µM | 53 µM | – | –
CC[C@H]1CN(C(c2cccc(F)c2)c2ccc(OC)cn2)[C@H](CC)CN1c1cc(=O)n(C)c2ccc(C#N)nc12 (stereo partly shown) [Example 1047] | 0.21 µM | 0.27 µM | – | –
C[C@@H]1CN(c2cc(=O)n(C)c3ccc(C#N)nc23)[C@@H](C)CN1C(c1ccc(C#N)cc1)c1ccc(F)cn1 (stereo partly drawn) [Example 464, 8-((2S,5R)-4-((4-cyanophenyl)(5-fluoropyridin-2-yl)methyl)-2,5-dimethylpiperazin-1-yl)-5-methyl-6-oxo-5,6-dihydro-1,5-naphthyridine-2-carbonitrile] | 0.28 µM | 1.7 µM | – | –
C[C@@H]1CN(c2cc(=O)n(C)c3ccc(C#N)nc23)[C@@H](C)CN1C(c1ccc(F)cc1)c1cccc2ccnn12 (single isomer, unassigned) [Example 694] | 0.84 µM | 0.12 µM | – | –
CC[C@H]1CN(C(C)c2ccc(C3CC3)cc2F)[C@H](CC)CN1c1cc(=O)n(C)c2ccc(C#N)nc12 (single isomer, unassigned) [Example 1357] | 0.12 µM | 0.02 µM | – | –
CC(c1cccc(C(F)(F)F)c1)N1CCN(c2c(C#N)c(=O)n(C)c3ccc(C#N)nc23)C[C@H]1C (single isomer, unassigned) [Example 972] | – | – | 20 µM | 15 µM
CC(c1ccc(OC(F)F)cc1)N1C[C@H](C)N(c2c(C#N)c(=O)n(C)c3ccc(C#N)nc23)C[C@H]1C (single isomer, unassigned) [Example 1376] | 0.84 µM | 17 µM | – | –
Cc1ccnc(C(c2ccc(Cl)cc2)N2C[C@H](C)N(c3cc(=O)n(C)c4ccc(C#N)nc34)C[C@H]2C)c1 (single isomer, unassigned) [Example 364] | 1.6 µM | 3.9 µM | – | –
CC(c1ccc(Cl)cc1)N1CCN(c2c(C#N)c(=O)n(C)c3ccc(C#N)nc23)C[C@H]1C (single isomer, unassigned) [Example 978] | – | – | 1.3 µM | 4.9 µM
Cn1c(=O)cc(N2CC(C3CC3)N(C(c3ccc(F)cc3)c3ccc(F)cc3)CC2C2CC2)c2nc(C#N)ccc21 (single isomer, unassigned) [Example 153, 8-(4-(bis(4-fluorophenyl)methyl)-2,5-dicyclopropylpiperazin-1-yl)-5-methyl-6-oxo-5,6-dihydro-1,5-naphthyridine-2-carbonitrile] | 240 µM | 240 µM | – | –
COC[C@@H]1CN(c2cc(=O)n(C)c3ccc(C#N)nc23)[C@@H](C)CN1C(C)c1ccc(OC(F)(F)F)cc1 (single isomer, unassigned) [Example 1163] | 10 µM | 7.5 µM | – | –
C[C@@H]1CN(c2c(C#N)c(=O)n(C)c3ccc(C#N)nc23)CCN1C(c1ccc(F)cc1)c1cccc2c1OC(C)(C)C2 (single isomer, unassigned) [Example 935] | – | – | 1.9 µM | 1.8 µM
CC[C@H]1CN(C(C)c2cc(F)c(F)c(F)c2)[C@H](C)CN1c1cc(=O)n(C)c2ccc(C#N)nc12 (single isomer, unassigned) [Example 1382] | 0.66 µM | 0.06 µM | – | –
C[C@@H]1CN(c2cc(=O)n(C)c3ccc(C#N)nc23)[C@@H](C)CN1C(c1ccc(F)cc1)c1noc(C(C)(C)C)n1 (single isomer, unassigned) [Example 765] | – | – | 0.62 µM | 0.13 µM
CC(c1ccc(C(=O)O)cc1)N1CCN(c2c(C#N)c(=O)n(C)c3ccc(C#N)nc23)C[C@H]1C (stereo partly shown) [Example 973] | – | – | > 250 µM | > 250 µM
C[C@@H]1CN(c2cc(=O)n(C)c3ccc(C#N)nc23)[C@@H](C)CN1C(c1cccc(F)c1)c1ccc(C(F)(F)F)cn1 (stereo partly drawn) [Example 370, 8-((2S,5R)-4-((3-fluorophenyl)(5-(trifluoromethyl)pyridin-2-yl)methyl)-2,5-dimethylpiperazin-1-yl)-5-methyl-6-oxo-5,6-dihydro-1,5-naphthyridine-2-carbonitrile] | 1.1 µM | 0.76 µM | – | –
C[C@@H]1CN(c2cc(=O)n(C)c3ccc(C#N)nc23)[C@@H](C)CN1C(c1ccc(F)cc1)c1cnccn1 (single isomer, unassigned) [Example 675] | 4.6 µM | 23 µM | – | –
CC[C@@H]1CN(c2cc(=O)n(C)c3ccc(C#N)nc23)[C@@H](C)CN1C(c1cccc(F)c1)c1ccc(F)cn1 (single isomer, unassigned) [Example 1108] | 0.031 µM | 0.09 µM | – | –
Cc1ncc(C(c2ccc(Cl)cc2)N2C[C@H](C)N(c3cc(=O)n(C)c4ccc(C#N)nc34)C[C@H]2C)cn1 (stereo partly drawn) [Example 385, 8-((2S,5R)-4-((4-chlorophenyl) (2-methylpyrimidin-5-yl)methyl)-2,5-dimethylpiperazin-1-yl)-5-methyl-6-oxo-5,6-dihydro-1,5-naphthyridine-2-carbonitrile] | 3.3 µM | 6.3 µM | – | –
CC(c1ccc(Br)cc1)N1C[C@H](C)N(c2c(C#N)c(=O)n(C)c3ccc(C#N)nc23)C[C@H]1C (single isomer, unassigned) [Example 789] | – | – | 1.2 µM | 7 µM
CC(C)[C@H]1CN(C(c2ccc(F)cc2)c2ccc(F)cc2)[C@@H](C)CN1c1cc(=O)n(C)c2ccc(C#N)nc12 [Example 125, 8-((2S,5S)-4-(bis(4-fluorophenyl)methyl)-2-isopropyl-5-methylpiperazin-1-yl)-5-methyl-6-oxo-5,6-dihydro-1,5-naphthyridine-2-carbonitrile] | 36 µM | 240 µM | – | –
CC(c1cc(OC(F)F)ccc1F)N1C[C@H](C)N(c2cc(=O)n(C)c3ccc(C#N)nc23)C[C@H]1C (single isomer, unassigned) [Example 1228] | 5.4 µM | 3 µM | – | –
C[C@@H]1CN(c2cc(=O)n(C)c3ccc(C#N)nc23)[C@@H](C)CN1C(c1ccc(F)cc1)c1cccnn1 (single isomer, unassigned) [Example 384] | 1.5 µM | 6.9 µM | – | –
Cc1nccc(C(c2ccc(F)cc2)N2CCN(c3c(C#N)c(=O)n(C)c4ccc(C#N)nc34)C[C@H]2C)n1 (stereo partly drawn) [Example 316, 8-((3R)-4-((4-fluorophenyl)(2-methylpyrimidin-4-yl)methyl)-3-methylpiperazin-1-yl)-5-methyl-6-oxo-5,6-dihydro-1,5-naphthyridine-2,7-dicarbonitrile] | 2.4 µM | 0.93 µM | – | –
CC(c1ccc(C#N)c(OCCN(C)C)c1)N1C[C@H](C)N(c2cc(=O)n(C)c3ccc(C#N)nc23)C[C@H]1C (single isomer, unassigned) [Example 1323] | 130 µM | 7.1 µM | – | –

Further lines, results first:

IC50 ([1]; liposome (LIPGLO) assay) | IC50 ([2]; liposome (LIPGLO) assay) | IC50 ([1]; DGKα liposome (LIPGLO) assay) | IC50 ([2]; DGKζ liposome (LIPGLO) assay) | Structure (SMILES)
12 µM | 15 µM | – | – | Cc1ncc(C(c2ccc(Cl)cc2)N2CCN(c3c(C#N)c(=O)n(C)c4ccc(C#N)nc34)C[C@H]2C)cn1 (single isomer, unassigned) [Example 413]
8.5 µM | 31 µM | – | – | Cc1ncc(C(c2ccc(Cl)cc2)N2CCN(c3c(C#N)c(=O)n(C)c4ccc(C#N)nc34)C[C@H]2C)cn1 (stereo partly drawn) [Example 314, 8-((3R)-4-((4-chlorophenyl)(2-methylpyrimidin-5-yl)methyl)-3-methylpiperazin-1-yl)-5-methyl-6-oxo-5,6-dihydro-1,5-naphthyridine-2,7-dicarbonitrile]
0.39 µM | 4.7 µM | – | – | CC(C)Oc1ccccc1CN1C[C@H](C)N(c2cc(=O)n(C)c3ccc(C#N)nc23)C[C@H]1C [Example 595]
– | – | 200 µM | 83 µM | CC(c1ccc(C(=O)O)cc1)N1C[C@H](C)N(c2c(C#N)c(=O)n(C)c3ccc(C#N)nc23)C[C@H]1C (stereo partly shown) [Example 787]
– | – | 21 µM | > 250 µM | C[C@@H]1CN(c2c(C#N)c(=O)n(C)c3ccc(C#N)nc23)CCN1Cc1cccnc1 [Example 998]
3.1 µM | 1.9 µM | – | – | CCOc1cccc(CN2C[C@H](C)N(c3cc(=O)n(C)c4ccc(C#N)nc34)C[C@H]2C)c1 [Example 599]
3 µM | 2.1 µM | – | – | C[C@@H]1CN(c2cc(=O)n(C)c3ccc(C#N)nc23)[C@@H](C)CN1C(c1cccc(F)c1)c1ccc(C(F)(F)F)cn1 (single isomer, unassigned) [Example 371]
54 µM | 0.086 µM | – | – | Cc1nc2c(C(C)N3C[C@H](C)N(c4cc(=O)n(C)c5ccc(C#N)nc45)C[C@H]3C)cccc2o1 (single isomer, unassigned) [Example 1260]
1.4 µM | 1.4 µM | – | – | C[C@@H]1CN(c2cc(=O)n(C)c3ccc(C#N)nc23)[C@@H](C)CN1C(CO)c1ccc(C(F)(F)F)cn1 (stereo partly drawn) [Example 1279, 8-((2S,5R)-4-(2-hydroxy-1-(5-(trifluoromethyl)pyridin-2-yl)ethyl)-2,5-dimethylpiperazin-1-yl)-5-methyl-6-oxo-5,6-dihydro-1,5-naphthyridine-2-carbonitrile]
3.8 µM | 0.6 µM | – | – | CC(c1cc(F)c(F)c(F)c1)N1C[C@H](C)N(c2cc(=O)n(C)c3ccc(C#N)nc23)C[C@H]1C (single isomer, unassigned) [Example 1241]
– | – | 2.1 µM | 0.58 µM | Cc1ccc(C(c2cccc(F)c2)N2CCN(c3c(C#N)c(=O)n(C)c4ccc(C#N)nc34)C[C@H]2C)nc1 (single isomer, unassigned) [Example 912]
7.1 µM | 10 µM | – | – | COC(CN1C[C@H](C)N(c2cc(=O)n(C)c3ccc(C#N)nc23)C[C@H]1C)c1ccc(F)cc1 (stereo partly drawn) [Example 561, 8-((2S,5R)-4-(2-(4-fluorophenyl)-2-methoxyethyl)-2,5-dimethylpiperazin-1-yl)-5-methyl-6-oxo-5,6-dihydro-1,5-naphthyridine-2-carbonitrile]
– | – | 1.7 µM | 7.1 µM | C[C@@H]1CN(c2c(C#N)c(=O)n(C)c3ccc(C#N)nc23)CCN1Cc1cccc(OC(F)(F)F)c1 [Example 1008]
